Laboratory results as given in ChEMBL document CHEMBL1201862, “PubChem BioAssay data set” (2004).
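Compound exposure: 48 hours, 5 concentrations, 96-well plates. Here, GI50 denotes the concentration required for 50% inhibition of growth.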 Calls of active or inactive are those of the source. Rule as the data show it: active = GI50 up to about 1.1 µM and inactive = higher.

Columns and labels:
Assay in all cases: NCI anticancer screen, dose series, 48 h
[1] = tested on: RPMI-8226
[2] = tested on: MDA-N
[3] = tested on: NCI/ADR-RES
[4] = tested on: MDA-MB-435
[5] = tested on: CCRF-CEM
[6] = tested on: SF-295
[7] = tested on: UO-31
[8] = tested on: OVCAR-8
[9] = tested on: SK-MEL-2
[10] = tested on: K562
[11] = tested on: T47D
[12] = tested on: MOLT-4
[13] = tested on: SN12C
[14] = tested on: HCT-116
[15] = tested on: HT-29
[16] = tested on: OVCAR-3
[17] = tested on: A549
[18] = tested on: Hs-578T
[19] = tested on: SR
[20] = tested on: CAKI-1
[21] = tested on: U-251
[22] = tested on: UACC-257
[23] = tested on: SK-MEL-28
[24] = tested on: HCC 2998
[25] = tested on: HOP-62
[26] = tested on: EKVX
[27] = tested on: OVCAR-4
[28] = tested on: LOX IMVI
[29] = tested on: NCI-H460
[30] = tested on: SK-MEL-5
[31] = tested on: COLO 205
[32] = tested on: Malme-3M
[33] = tested on: HL-60
[34] = tested on: 786-0
[35] = tested on: SF-268
[36] = tested on: M14
[37] = tested on: BT-549
[38] = tested on: SK-OV-3
[39] = tested on: KM12
[40] = tested on: MCF7
[41] = tested on: SF-539
[42] = tested on: HCT-15
[43] = tested on: RXF 393
[44] = tested on: UACC-62
[45] = tested on: IGROV-1
[46] = tested on: ACHN
[47] = tested on: PC-3
[48] = tested on: TK-10
[49] = tested on: A498
[50] = tested on: SNB-19
[51] = tested on: DU-145
[52] = tested on: NCI-H522
[53] = tested on: MDA-MB-231
[54] = tested on: HOP-92
[55] = tested on: SNB-75
[56] = tested on: SW-620
[57] = tested on: NCI-H23
[58] = tested on: OVCAR-5

COC(=O)NCCc1n[nH]c2c1C(=O)C=C(Nc1ccccc1OC)C2=O
GI50 [1]: 20.5 µM (inactive) | GI50 [2]: 18.1 µM (inactive) | GI50 [3]: 21.1 µM (inactive) | GI50 [4]: 17.1 µM (inactive) | GI50 [5]: 30.1 µM (inactive) | GI50 [6]: 44.5 µM (inactive) | GI50 [7]: 42.2 µM (inactive) | GI50 [8]: 13.6 µM (inactive) | GI50 [9]: 22.2 µM (inactive) | GI50 [10]: 30 µM (inactive) | GI50 [11]: 30.1 µM (inactive) | GI50 [12]: 21.8 µM (inactive) | GI50 [13]: 40.3 µM (inactive) | GI50 [14]: 18.9 µM (inactive) | GI50 [15]: 28.1 µM (inactive) | GI50 [16]: 7.64 µM (inactive) | GI50 [17]: 41.2 µM (inactive) | GI50 [18]: 28.4 µM (inactive) | GI50 [19]: 28.5 µM (inactive) | GI50 [20]: 33.9 µM (inactive) | GI50 [21]: 24.8 µM (inactive) | GI50 [22]: 17 µM (inactive) | GI50 [23]: 38.4 µM (inactive) | GI50 [24]: 17.7 µM (inactive) | GI50 [25]: 83.4 µM (inactive) | GI50 [26]: 32.8 µM (inactive) | GI50 [27]: 16.8 µM (inactive) | GI50 [28]: 23 µM (inactive) | GI50 [29]: 28.2 µM (inactive) | GI50 [30]: 13.7 µM (inactive) | GI50 [31]: 24.3 µM (inactive) | GI50 [32]: 14.2 µM (inactive) | GI50 [33]: 21.8 µM (inactive) | GI50 [34]: 38 µM (inactive) | GI50 [35]: 45.7 µM (inactive) | GI50 [36]: 16.2 µM (inactive) | GI50 [37]: 25 µM (inactive) | GI50 [38]: > 100 µM (inactive) | GI50 [39]: 24.8 µM (inactive) | GI50 [40]: 16 µM (inactive) | GI50 [41]: 17.5 µM (inactive) | GI50 [42]: 28.4 µM | GI50 [43]: 94 µM (inactive) | GI50 [44]: 18.7 µM (inactive) | GI50 [45]: 26.5 µM (inactive) | GI50 [46]: 38.6 µM (inactive) | GI50 [47]: 31.6 µM (inactive) | GI50 [48]: 53.7 µM (inactive) | GI50 [49]: 31.7 µM (inactive) | GI50 [50]: > 100 µM (inactive) | GI50 [51]: 42.4 µM (inactive) | GI50 [52]: 24.1 µM (inactive) | GI50 [53]: 27 µM (inactive) | GI50 [54]: 41.7 µM (inactive) | GI50 [55]: 28.2 µM (inactive) | GI50 [56]: 20.8 µM (inactive) | GI50 [57]: 16 µM (inactive) | GI50 [58]: 61.4 µM (inactive)

COC(=O)CC(C#N)(OP1(=O)OC(c2ccccc2)C(C)N1C)c1ccccc1 (stereo not given)
GI50 [1]: 25.1 µM (inactive) | GI50 [2]: 26.8 µM (inactive) | GI50 [3]: 40.1 µM (inactive) | GI50 [4]: 21.4 µM (inactive) | GI50 [5]: 11.5 µM (inactive) | GI50 [6]: 42 µM (inactive) | GI50 [7]: 12.1 µM (inactive) | GI50 [8]: 22.8 µM (inactive) | GI50 [9]: 27.2 µM (inactive) | GI50 [10]: 24.3 µM (inactive) | GI50 [11]: 28.1 µM (inactive) | GI50 [12]: 25.5 µM (inactive) | GI50 [13]: 29.6 µM (inactive) | GI50 [14]: 24.2 µM (inactive) | GI50 [15]: 23.8 µM (inactive) | GI50 [16]: 18.8 µM (inactive) | GI50 [17]: 34.3 µM (inactive) | GI50 [18]: 30.3 µM (inactive) | GI50 [19]: 25.9 µM (inactive) | GI50 [20]: 25.4 µM (inactive) | GI50 [21]: 23.1 µM (inactive) | GI50 [22]: 20.6 µM (inactive) | GI50 [23]: 31.1 µM (inactive) | GI50 [24]: 16.6 µM (inactive) | GI50 [25]: 30.7 µM (inactive) | GI50 [26]: 21.7 µM (inactive) | GI50 [28]: 21 µM (inactive) | GI50 [29]: 20.4 µM (inactive) | GI50 [30]: 64.3 µM (inactive) | GI50 [31]: 34.5 µM (inactive) | GI50 [32]: 41.8 µM (inactive) | GI50 [33]: 23.8 µM (inactive) | GI50 [34]: 24 µM (inactive) | GI50 [35]: 30.3 µM (inactive) | GI50 [36]: 31.3 µM (inactive) | GI50 [37]: 36.2 µM (inactive) | GI50 [38]: 40.5 µM (inactive) | GI50 [39]: 20.6 µM (inactive) | GI50 [40]: 28.2 µM (inactive) | GI50 [41]: 37.5 µM (inactive) | GI50 [42]: 28.6 µM | GI50 [43]: 20.6 µM (inactive) | GI50 [44]: 19.8 µM (inactive) | GI50 [45]: 34.4 µM (inactive) | GI50 [46]: 25.9 µM (inactive) | GI50 [47]: 37 µM (inactive) | GI50 [48]: 29 µM (inactive) | GI50 [49]: 44.6 µM (inactive) | GI50 [50]: 39.3 µM (inactive) | GI50 [51]: 32.4 µM (inactive) | GI50 [52]: 59 µM (inactive) | GI50 [53]: 42.4 µM (inactive) | GI50 [54]: 32.3 µM (inactive) | GI50 [55]: 43.4 µM (inactive) | GI50 [56]: 17.3 µM (inactive) | GI50 [57]: 31.5 µM (inactive) | GI50 [58]: 27.4 µM (inactive)
